Laboratory results: PMC10650108 (Molecules, 2023)
Entries after “also recorded” stand apart in the source; their conditions may differ. Ends that are not written are not given here.

How the values were obtained:
[1] = in vitro plasma metabolism; conditions: cited from earlier work
[2] = mixed-gender human skin S9 (3-Donor Pool) in PBS; conditions: 37 °C, up to 2 h
[3] = mixed-gender human liver microsomes (10-Donor Pool) in PBS with MgCl2 and NADPH; conditions: 37 °C, up to 2 h
[4] = In vitro metabolic incubation with human liver microsomes, UHPLC-HRMS metabolite profiling; format: in vitro ADME; conditions: 37 °C, 2 h
Description: (§1) Mixed-gender human liver microsomes (10-Donor Pool, total protein concentration of 20 mg/mL) and mixed-gender human skin S9 (3-Donor Pool, total protein concentration of 1.89 mg/mL) were purchased from BioreclamationIVT (Westbury, NY, USA). Phosphate buffered saline (PBS, pH 7.2~7.4) was obtained from Sangon Biotech Co., Ltd. (Shanghai, China). BPC-157 (HPLC purity > 99%) and (Deamino-cysl, val4, D-arg8)-Vasopressin (DCVDV, internal standard, ISTD) were purchased from Alta Scientific Co., Ltd. (Tianjin, China). ^13C6,^15N2-BPC-157 (labeled BPC-157, HPLC purity > 98%) was purchased from Synpeptide Co., Ltd. (Nanjing, China). BPC-157 (2–15) free acid, BPC-157 (1–13) free acid, BPC-157 (2–13) free acid, BPC-157 (1–12) free acid, BPC-157 (3–15) free acid, BPC-157 (1–8) free acid, and BPC-157 (2–8) free acid were synthesized by Alta Scientific Co., Ltd. (Tianjin, China). MgCl2 was from Beyotime Biotechnology (Shanghai, China). Nicotinamide adenine dinucleotide phosphate (NADPH) was purchased from Vetec (Shanghai, China). Acetonitrile (ACN), methanol (MeOH), and formic acid (FA) were of LC-MS grade and were obtained from Thermo Fisher Scientific (San Jose, CA, USA). Milli-Q purified water (MerckMillipore, Vimodrone, Milan, Italy) was used for sample preparation, reference material dilution, and LC mobile phase preparation. […]

[5] = In vitro metabolic incubation with human skin S9, UHPLC-HRMS metabolite profiling; format: in vitro ADME; conditions: human skin S9 0.189 mg/mL, 37 °C, 2 h
Description: as §1

## GEPPPGKPADDAGLV [BPC-157]
[1]
  fragment found: BPC-157 (2–15) free acid (M8), major; also recorded: BPC-157 (2–13) free acid
[2]
  cleaved bond: glycine1-E2, major
  fragment found: BPC-157 (1–14) free acid (M6), GEPPPGKPADDAGL; also recorded: BPC-157 (2–8) free acid (M1), EPPPGKP, major; also recorded: BPC-157 (1–8) free acid (M2), GEPPPGKP, major; also recorded: BPC-157 (1–13) free acid (M4), GEPPPGKPADDAG, major
[3]
  cleaved bond: glycine1-E2, major
  fragment found: BPC-157 (1–14) free acid (M6), GEPPPGKPADDAGL; also recorded: BPC-157 (2–8) free acid (M1), EPPPGKP, major; also recorded: BPC-157 (1–8) free acid (M2), GEPPPGKP, major; also recorded: BPC-157 (1–13) free acid (M4), GEPPPGKPADDAG, major

## EPPPGKPADDAG [BPC-157 (2–13) free acid (M3), BPC-157 (2–13) free acid]
[4]; human liver microsomes 1 mg/mL, NADPH, UHPLC-HRMS
  Detection of metabolite in the human liver microsome incubation system (in words): only detected in the human liver microsome incubation system

## EPPPGKPADDAGLV [BPC-157 (2–15) free acid (M8), BPC-157 (2–15) free acid]
[4]; both incubation systems (human liver microsomes and human skin S9), relative to the most abundant metabolite M8
  Relative response of metabolites (relative abundance): most abundant metabolite in both incubation systems

## GKPADDAGLV [BPC-157 (6–15) free acid (M7), BPC-157 (6–15) free acid]
[5]
  Detection of metabolite in the human skin S9 incubation system (in words): only detected in the human skin S9 incubation system

## EPPPGKPADDAGL [BPC-157 (2–14) free acid (M5), BPC-157 (2–14) free acid]
[5]
  Detection of metabolite in the human skin S9 incubation system (in words): only detected in the human skin S9 incubation system

## GEPPPGKPADDAGLV [labeled BPC-157]
[3]
  fragment found: labeled M9
